The subject of one test is 1392 (donor line of iPSC-derived cardiomyocytes). The test is described as follows: POD (EC05) for decrease in beat frequency (negative chronotrope) vs vehicle; higher = less potent (higher point of departure). Conditions: exposure time: 90 min. On the procedure:
(§1)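 Human iPSC-derived cardiomyocytes from 16 donors were exposed for 90 min at 37 °C to each PFAS at 0.1, 1, 10 and 100 µM in 0.5% DMSO, 384-well plates. Kinetic Ca2+ flux (FLIPR) and Hoechst nuclei counts were normalised to vehicle wells and fitted with a hierarchical Bayesian Hill model to give donor-specific PODs: EC05 for beat-rate increase or decrease and for decay-to-rise ratio increase (QT proxy), EC95 for peak-frequency loss (asystole), EC10 for total cell number loss. 0.03 µM is the lower bound.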
Regarding `OCC(F)(F)C(F)(F)C(F)(F)F` [Heptafluorobutanol], the POD vs vehicle was over 100 µM.

As for `OCC(F)(F)C(F)(F)C(F)(F)CO` [Hexafluoroamylene_glycol], the POD vs vehicle was over 100 µM.

The compound `COC(=O)C(F)(F)C(F)(F)OC(F)(C(F)(F)F)C(F)(F)OC(F)=C(F)F` (stereo not drawn) [Methyl_perfluoro(3-(1-ethenyloxypropan-2-yloxy)propanoate)] came in with a POD vs vehicle of over 100 µM.

`NC(=O)C(F)(F)C(F)(F)C(F)(F)C(F)(F)F` [Nonafluoropentanamide] yielded a POD vs vehicle of over 100 µM.

On to `NC(=O)C(F)(F)C(F)(F)C(F)(F)C(F)(F)C(N)=O` [Octafluoroadipamide], for which the POD vs vehicle was over 100 µM.

`O=C(O)C(F)(F)C(F)(F)C(F)(F)C(F)(F)C(=O)O` [Octafluoroadipic_acid] displayed a POD vs vehicle of over 100 µM.

Compound `O=C(O)C(F)(F)C(F)(F)C(F)(F)OC(F)(F)F` [Perfluoro(4-methoxybutanoic)_acid] displayed a POD vs vehicle of over 100 µM.

Consider `O=C(O)C(F)(F)OC(F)(F)C(F)(F)OC(F)(F)C(F)(F)OC(F)(F)C(F)(F)C(F)(F)C(F)(F)F` [Perfluoro-3,6,9-trioxatridecanoic_acid], for which the POD vs vehicle is over 100 µM.

In the case of `O=C(O)C(F)(F)OC(F)(F)C(F)(F)OC(F)(F)F` [Perfluoro-3,6-dioxaheptanoic_acid], the POD vs vehicle is over 100 µM.

For the compound `O=C(O)C(F)(F)OC(F)(F)C(F)(F)OC(F)(F)C(=O)O` [Perfluoro-3,6-dioxaoctane-1,8-dioic_acid], the POD vs vehicle was over 100 µM.

The test system of another test is 11235 (donor line of iPSC-derived cardiomyocytes). Described as above. Conditions: exposure time: 90 min. On the procedure:
as §1
In turn, `OCCC(F)(F)C(F)(F)C(F)(F)C(F)(F)C(F)(F)C(F)(F)F` [6:2 Fluorotelomer alcohol] showed a POD vs vehicle of over 100 µM.

Take `O=S(=O)(O)CCC(F)(F)C(F)(F)C(F)(F)C(F)(F)C(F)(F)C(F)(F)F` [6:2 Fluorotelomer sulfonic acid]: the POD vs vehicle was determined as 6.84 µM.

`OCCC(F)(F)C(F)(F)C(F)(F)C(F)(F)C(F)(F)C(F)(F)C(F)(F)C(F)(F)F` [8:2 Fluorotelomer alcohol]: the POD vs vehicle is over 100 µM.

The compound `O=S(=O)(O)CCC(F)(F)C(F)(F)C(F)(F)C(F)(F)C(F)(F)C(F)(F)C(F)(F)C(F)(F)F` [8:2 Fluorotelomer sulfonic acid] yielded a POD vs vehicle of 0.121 µM.

The compound `O=C(O)C(F)(F)C(F)(F)C(F)(F)C(F)(F)C(F)(F)C(F)(F)C(F)(F)C(F)(F)Cl` [9-Chloro-perfluorononanoic_acid] had a POD vs vehicle of 2.23 µM.

For the compound `O=P(O)(O)CCC(F)(F)C(F)(F)C(F)(F)C(F)(F)C(F)(F)C(F)(F)C(F)(F)C(F)(F)F` [((Perfluorooctyl)ethyl)phosphonic_acid], the POD vs vehicle was over 100 µM.

`O=C([O-])C(F)(F)C(F)(F)C(F)(F)C(F)(F)C(F)(F)C(F)(F)C(F)(F)F.[NH4+]` [Ammonium_perfluorooctanoate] displayed a POD vs vehicle of 4.51 µM.

As to `OCC(F)(F)C(F)(F)C(F)(F)C(F)(F)C(F)(F)C(F)F` [Dodecafluoroheptanol], the POD vs vehicle came out at 19.2 µM.

Turning to `OCC(F)(F)OC(F)(F)C(F)(F)OC(F)(F)C(F)(F)OC(F)(F)F` [Fluorinated_triethylene_glycol_monomethyl_ether], the POD vs vehicle is over 100 µM.

On to `OCC(F)(F)C(F)(F)C(F)(F)F` [Heptafluorobutanol], for which the POD vs vehicle was over 100 µM.

`OCC(F)(F)C(F)(F)C(F)(F)CO` [Hexafluoroamylene_glycol] came in with a POD vs vehicle of over 100 µM.

Regarding `COC(=O)C(F)(F)C(F)(F)OC(F)(C(F)(F)F)C(F)(F)OC(F)=C(F)F` (stereo not drawn) [Methyl_perfluoro(3-(1-ethenyloxypropan-2-yloxy)propanoate)], the POD vs vehicle is over 100 µM.

In turn, `NC(=O)C(F)(F)C(F)(F)C(F)(F)C(F)(F)F` [Nonafluoropentanamide] registered a POD vs vehicle of over 100 µM.

On to `NC(=O)C(F)(F)C(F)(F)C(F)(F)C(F)(F)C(N)=O` [Octafluoroadipamide], for which the POD vs vehicle was over 100 µM.

As to `O=C(O)C(F)(F)C(F)(F)C(F)(F)C(F)(F)C(=O)O` [Octafluoroadipic_acid], the POD vs vehicle is over 100 µM.

In turn, `O=C(O)C(F)(F)C(F)(F)C(F)(F)OC(F)(F)F` [Perfluoro(4-methoxybutanoic)_acid] returned a POD vs vehicle of over 100 µM.

Take `O=C(O)C(F)(F)OC(F)(F)C(F)(F)OC(F)(F)C(F)(F)OC(F)(F)C(F)(F)C(F)(F)C(F)(F)F` [Perfluoro-3,6,9-trioxatridecanoic_acid]: the POD vs vehicle came to 23.1 µM.

In turn, `O=C(O)C(F)(F)OC(F)(F)C(F)(F)OC(F)(F)F` [Perfluoro-3,6-dioxaheptanoic_acid] showed a POD vs vehicle of over 100 µM.

Regarding `O=C(O)C(F)(F)OC(F)(F)C(F)(F)OC(F)(F)C(=O)O` [Perfluoro-3,6-dioxaoctane-1,8-dioic_acid], the POD vs vehicle is over 100 µM.

Another test deals with 1518 (donor line of iPSC-derived cardiomyocytes). The test is described as above. To be noted: exposure time: 90 min. On the procedure:
as §1
`OCCC(F)(F)C(F)(F)C(F)(F)C(F)(F)C(F)(F)C(F)(F)F` [6:2 Fluorotelomer alcohol] gave a POD vs vehicle of over 100 µM.

In turn, `O=S(=O)(O)CCC(F)(F)C(F)(F)C(F)(F)C(F)(F)C(F)(F)C(F)(F)F` [6:2 Fluorotelomer sulfonic acid] yielded a POD vs vehicle of 42.6 µM.

As to `OCCC(F)(F)C(F)(F)C(F)(F)C(F)(F)C(F)(F)C(F)(F)C(F)(F)C(F)(F)F` [8:2 Fluorotelomer alcohol], the POD vs vehicle is over 100 µM.

On to `O=S(=O)(O)CCC(F)(F)C(F)(F)C(F)(F)C(F)(F)C(F)(F)C(F)(F)C(F)(F)C(F)(F)F` [8:2 Fluorotelomer sulfonic acid], for which the POD vs vehicle turned out to be 65.7 µM.

Regarding `O=C(O)C(F)(F)C(F)(F)C(F)(F)C(F)(F)C(F)(F)C(F)(F)C(F)(F)C(F)(F)Cl` [9-Chloro-perfluorononanoic_acid], the POD vs vehicle is over 100 µM.

Compound `O=P(O)(O)CCC(F)(F)C(F)(F)C(F)(F)C(F)(F)C(F)(F)C(F)(F)C(F)(F)C(F)(F)F` [((Perfluorooctyl)ethyl)phosphonic_acid] yielded a POD vs vehicle of over 100 µM.

For `O=C([O-])C(F)(F)C(F)(F)C(F)(F)C(F)(F)C(F)(F)C(F)(F)C(F)(F)F.[NH4+]` [Ammonium_perfluorooctanoate], the POD vs vehicle turned out to be 87.3 µM.

Turning to `OCC(F)(F)C(F)(F)C(F)(F)C(F)(F)C(F)(F)C(F)F` [Dodecafluoroheptanol], the POD vs vehicle was 14.9 µM.

The compound `OCC(F)(F)OC(F)(F)C(F)(F)OC(F)(F)C(F)(F)OC(F)(F)F` [Fluorinated_triethylene_glycol_monomethyl_ether] returned a POD vs vehicle of over 100 µM.

Regarding `OCC(F)(F)C(F)(F)C(F)(F)F` [Heptafluorobutanol], the POD vs vehicle is over 100 µM.

Take `OCC(F)(F)C(F)(F)C(F)(F)CO` [Hexafluoroamylene_glycol]: the POD vs vehicle is over 100 µM.

`COC(=O)C(F)(F)C(F)(F)OC(F)(C(F)(F)F)C(F)(F)OC(F)=C(F)F` (stereo not drawn) [Methyl_perfluoro(3-(1-ethenyloxypropan-2-yloxy)propanoate)] showed a POD vs vehicle of over 100 µM.

`NC(=O)C(F)(F)C(F)(F)C(F)(F)C(F)(F)F` [Nonafluoropentanamide]: the POD vs vehicle was over 100 µM.

`NC(=O)C(F)(F)C(F)(F)C(F)(F)C(F)(F)C(N)=O` [Octafluoroadipamide] yielded a POD vs vehicle of over 100 µM.

As for `O=C(O)C(F)(F)C(F)(F)C(F)(F)C(F)(F)C(=O)O` [Octafluoroadipic_acid], the POD vs vehicle was over 100 µM.

Take `O=C(O)C(F)(F)C(F)(F)C(F)(F)OC(F)(F)F` [Perfluoro(4-methoxybutanoic)_acid]: the POD vs vehicle is over 100 µM.

In turn, `O=C(O)C(F)(F)OC(F)(F)C(F)(F)OC(F)(F)C(F)(F)OC(F)(F)C(F)(F)C(F)(F)C(F)(F)F` [Perfluoro-3,6,9-trioxatridecanoic_acid] returned a POD vs vehicle of over 100 µM.

Compound `O=C(O)C(F)(F)OC(F)(F)C(F)(F)OC(F)(F)F` [Perfluoro-3,6-dioxaheptanoic_acid] gave a POD vs vehicle of over 100 µM.

As for `O=C(O)C(F)(F)OC(F)(F)C(F)(F)OC(F)(F)C(=O)O` [Perfluoro-3,6-dioxaoctane-1,8-dioic_acid], the POD vs vehicle was over 100 µM.
